# Data: paper PMC6564044, “Exploring E-cadherin-peptidomimetics interaction using NMR and computational studies” (PLoS Computational Biology, 2019)
# Where two headings read alike, the source gives them in different places. Positions of bridges follow the written chain, without caps; N, C: chain ends.
# How the values were obtained:
# wt E-cadherin-EC1-EC2 [1] = experiment: STD-NMR epitope mapping with wt E-cadherin-EC1-EC2; type: binding, human
# Text: STD-NMR is a consolidated technique based on Overhauser effect that is used to study the interactions between small ligands and macromolecules. The method relies on the selective irradiation of the protein, which allows magnetization to be transferred to the bound ligand (which is in great excess in solution compared to the protein concentration). The saturated ligand is displaced in solution due to the binding equilibrium and the observation of the ligand signals in the NMR spectrum provides an indication of the interaction. Those ligand protons that are nearest to the protein are more likely to become highly saturated, and therefore show the strongest signal in the mono-dimensional STD spectrum. Owing to the efficiency of the saturation process, the modulation of the ligand signal intensity is used as an epitope-mapping method to describe the target-ligand interactions. In fact, the intensity of the STD signal (expressed as absolute STD percentage) reflects the proximity of the ligand to the protein surface. Therefore, the group epitope mapping obtained provides information about the nature of the chemical moieties of the ligand that are crucial for molecular recognition in the binding site. We also used the STD amplification factors (STD-AF) to derive the dissociation constant (KD) of the ligand-protein complexes. Moreover, we performed tr-NOESY experiments in order to determine the preferred bound conformation of the ligands.
# (§1) STD–NMR and tr-NOESY spectra were acquired in 20 mM phosphate buffer at pH 7.4 (with 150 mM NaCl and 1 mM CaCl2) and 40 μM EC1-EC2 fragments of E-cadherin. In this condition, a monomeric form is predominant in solution [28]. We performed STD-NMR experiments at 283K, 290K and 298K since lowering the temperature helps to […] the rotational correlation time of the receptor and to increase the effective magnetization transfer. […] Furthermore, we also studied the binding modes of the ligands in the presence of the truncated mutant (E-cadherin-(Val3)-EC1-EC2).
# (§2) The spectra were acquired with a Bruker Avance 600 MHz instrument at 283, 290 and 298 K, in a 3 mm NMR tube and in the phosphate buffer previously described (200 μL).
# (§3) The interaction between ligands and isolated proteins was detected using trNOESY, trROESY and STD experiments. In trNOESY and trROESY experiments, water suppression was achieved by use of an excitation sculpting pulse sequence. In STD experiments water suppression was achieved by using the WATERGATE 3-9-19 pulse sequence.
# (§4) The on-resonance irradiation of the protein was kept at -0.05 ppm. Off-resonance irradiation of the protein was applied at 200 ppm, where no protein signals were visible. Selective presaturation of the protein was achieved by a train of Gauss shaped pulses of 49 ms length each. The total length of the saturation train was 2.94 s.
# (§5) All the experiments were conducted with the first two domains (EC1-EC2) of wt E–cadherin (Molecular Weight EC1-EC2 construct = 23 KDa) and with the construct lacking the first two residues (E-cadherin-(Val3)-EC1-EC2), with a ligand-protein ratio of 80:1.
# Since calcium ions are important to rigidify the EC1-EC2 linker region in the monomeric protein and considering that the use of phosphate buffer in the presence of CaCl2 may be critical, due to the limited solubility of CaHPO4, we studied the stability of the protein in phosphate buffer. We monitored the chemical shift variation in ^1H-^15N-HSQC experiment using the ^15N-labeled protein for 24 hours and we can confirm that the protein remains in the correct folding.
# wt E-cadherin-EC1-EC2 [2] = experiment: KD determination by STD-NMR titration (STD-AF isotherm); type: binding, human; details: STD-AF vs ligand concentration, two STD measurements per point; 283 K; protein 0.05 mM, ligand 2.0-16.0 mM
# Text: STD-NMR is a consolidated technique based on Overhauser effect that is used to study the interactions between small ligands and macromolecules. The method relies on the selective irradiation of the protein, which allows magnetization to be transferred to the bound ligand (which is in great excess in solution compared to the protein concentration). The saturated ligand is displaced in solution due to the binding equilibrium and the observation of the ligand signals in the NMR spectrum provides an indication of the interaction. […] In fact, the intensity of the STD signal (expressed as absolute STD percentage) reflects the proximity of the ligand to the protein surface. […]
# In order to evaluate the interaction strength between E-cadherin and compound 1, we acquired a series of STD spectra at variable ligand concentrations. The STD amplification factor (STD-AF) can be calculated by multiplying the observed STD by the molar excess of the ligand over the protein [20, 21, 25–27], so that its values depend on the fraction of bound protein. […]
# Supplementary file pcbi.1007041.s004.tif: S3 Fig Variation of STD-AF versus the increase of ligand 1 concentration in presence of E-cadherin interacting protons and the intensities observed are reported in the graph. We measured the KD value of compound 1 (S3 Fig) and 2 in the presence of E-cadherin by STD (for each point we performed two STD measurements). […]
# wt E-cadherin-EC1-EC2 [3] = experiment: tr-NOESY bound conformation; type: binding, human; details: presence of E-cadherin
# Experimental: as §1, §2, §3
# E-cadherin-EC1-EC2 = details: mutant EC1-EC2 lacking Asp1-Trp2 (PDB 4ZTE) or intact EC1-EC2 as stated, cited from earlier work
# Text: Recently, we reported the first library of small peptidomimetic molecules targeting the strand-swapped dimer interfaces of E- and N-cadherin. These compounds are mimics of the tetrapeptide sequence Asp1-Trp2-Val3-Ile4 (DWVI) of the adhesion arm, modified by replacing the central dipeptide unit (WV) with various scaffolds, all of them bearing a benzyl group that is intended to mimic the indole moiety of Trp2.
# [4] = tested on: E-cadherin-(Val3)-EC1-EC2; experiment: STD-NMR epitope mapping with truncated E-cadherin; type: binding, human; details: for STD epitope with truncated E-cadherin: three temperatures, ligand-protein 80:1
# Experimental: as §1, §2, §3, §4, §5
# [5] = Free ligand NMR conformational analysis (NOESY, VT-NMR); type: physicochemical; details: for hydrogen bonding of amide/exchangeable protons: free ligand, VT experiments (compound 1); for NOESY free-state conformation: phosphate buffer, 283 K and 298 K
# Experimental: NMR spectroscopy experiments were performed at 283K and 298K on Bruker Avance 400 and 600 MHz spectrometers. All proton and carbon chemical shifts were assigned unambiguously and the assignments are reported in S1–S4 Tables. The NMR experiments were carried out in an aqueous phosphate (20 mM) buffer pH = 7 with 150 mM NaCl and 1 mM CaCl2 in order to observe amide protons with 10% D2O. Two-dimensional experiments (TOCSY, NOESY, ROESY and HSQC) were carried out on samples at a concentration range of 3–6 mM. NOESY experiments were performed with a mixing time of 200 and 700 ms.
# In order to obtain clear spectra, the water signal suppression was achieved by using excitation sculpting sequence from Bruker library (DPFGSE, Double Pulse Field Gradient Spin Echo).
# The conformations of the peptidomimetics were analysed with respect to hydrogen bonding of amide protons (VT-NMR spectroscopy) and NOE contacts.
# [6] = tested on: N-cadherin mediated processes; details: cited from earlier work
# Text: Beside its broad-ranging effects on physiological tissue organization, classical cadherin dysfunction is often correlated with cancer progression and metastasis. Despite Epithelial (E)- to Neural (N-) cadherin switching being considered a molecular hallmark of epithelial to mesenchymal transition of cancer cells, carcinomas and distal metastases often retain E-cadherin expression, as observed for instance in late stage tumors in epithelial ovarian cancer (EOC). In this context, targeting the E-cadherin adhesive interface with small molecules could have a therapeutic a ...
# [7] = 283, 290 and 298 K, wt E-cadherin-EC1-EC2
# [8] = VT-NMR, phosphate 20 mM, pH 7, 10% D2O
# [9] = 283 K, wt E-cadherin-EC1-EC2, ligand-protein 80:1
# [10] = 290 K, wt E-cadherin-EC1-EC2, ligand-protein 80:1
compound,measurement,setting,value
CCC(C)C(NC(=O)CC1NC(=O)C(CNC(=O)C(N)CC(=O)O)N(Cc2ccccc2)C1=O)C(=O)NC(C)(C)C.O=C(O)C(F)(F)F (stereo not shown) [compound 1],STD interaction of aromatic moiety,wt E-cadherin-EC1-EC2 [1]; [7],interacts at all the temperatures with similar strength
same,"STD epitope changes (NH10, NH1, Ile NH)","wt E-cadherin-EC1-EC2 [1]; 290 K, wt E-cadherin-EC1-EC2","NH10 STD signal disappears, NH1 decreases in intensity and the signal of the amidic Ile proton appears"
same,"STD epitope, NHIle","wt E-cadherin-EC1-EC2 [1]; 298 K, wt E-cadherin-EC1-EC2",NHIle signal replaces those of NH1 and NH10
same,"STD epitope, NH1 and NH10","wt E-cadherin-EC1-EC2 [1]; lowest temperature (283 K), wt E-cadherin-EC1-EC2",strong interactions at the lowest temperature
same,STD interaction of Ile backbone NH,"wt E-cadherin-EC1-EC2 [1]; temperature dependence, wt E-cadherin-EC1-EC2",seems to interact only at a higher temperature
same,Kd,wt E-cadherin-EC1-EC2 [2],> 20 mM
same,tr-NOESY bound conformation / contacts,wt E-cadherin-EC1-EC2 [3],in the bound form compound 1 adopts an extended conformation
same,X-ray binding / co-crystallization,E-cadherin-EC1-EC2,"binds to a dimeric conformation of E-cadherin, the so-called ‘X-dimer’"
same,X-ray binding / co-crystallization,E-cadherin-EC1-EC2; listed as compounds 1,attempts to co-crystallize both compounds 1 and 2 with intact E-cadherin-EC1-EC2 did not yield results
same,STD epitope with truncated E-cadherin,[4]; E-cadherin-(Val3)-EC1-EC2,only the aromatic protons are able to interact with the protein
same,binding affinity to truncated vs wt E-cadherin,"[4]; E-cadherin-(Val3)-EC1-EC2 vs wt, 283 K",weaker binding affinity
same,N-terminal Asp amine signal in STD,"[4]; lower amount of D2O, E-cadherin-(Val3)-EC1-EC2",the N-terminal amine of the Asp residue of the ligand can be observed
same,Δδ/ΔT of NH10,"[5]; VT-NMR, phosphate 20 mM, pH 7, 150 mM NaCl, 1 mM CaCl2, 10% D2O",4.67 ppb*10^3
same,Δδ/ΔT of NH1,[5]; [8],8.33 ppb*10^3
same,Δδ/ΔT of NHIle,[5]; [8],7.67 ppb*10^3
same,Δδ/ΔT of NHtBu,[5]; [8],7.33 ppb*10^3
same,hydrogen bonding of amide/exchangeable protons,[5],NH10 is the only one that could be engaged in an inter-molecular hydrogen bond
same,NOESY free-state conformation,[5],equilibrium between different conformations
CCC(C)C(NC(=O)C1CCC2CCN(Cc3ccccc3)CC(NC(=O)C(N)CC(=O)O)C(=O)N21)C(N)=O.O=C(O)C(F)(F)F (stereo not shown) [compound 2],absolute STD % of aromatic protons,wt E-cadherin-EC1-EC2 [1]; [7],about 0.2%
same,absolute STD % of NH19,"wt E-cadherin-EC1-EC2 [1]; 283 K, 40 μM protein, 20 mM phosphate pH 7.4, 150 mM NaCl, 1 mM CaCl2, ligand-protein 80:1",2.078%
same,absolute STD % of C-terminal amidic NH2,wt E-cadherin-EC1-EC2 [1]; [9],0.2%
same,absolute STD % of scaffold H4/H6,wt E-cadherin-EC1-EC2 [1]; [9],0.265%
same,STD signal of scaffold H4 and H6,"wt E-cadherin-EC1-EC2 [1]; 290 K, wt E-cadherin-EC1-EC2",not detectable
same,absolute STD % of C-terminal amidic NH2,wt E-cadherin-EC1-EC2 [1]; [10],0.463%
same,absolute STD % of NH19,wt E-cadherin-EC1-EC2 [1]; [10],1.441%
same,protons observable in STD spectrum,"wt E-cadherin-EC1-EC2 [1]; 298 K, wt E-cadherin-EC1-EC2",only the aromatic protons and the amidic NH2 (0.806%) are observable in the STD spectrum
same,absolute STD % of C-terminal amidic NH2,"wt E-cadherin-EC1-EC2 [1]; 298 K, wt E-cadherin-EC1-EC2, ligand-protein 80:1",0.806%
same,Kd,wt E-cadherin-EC1-EC2 [2],> 20 mM
same,tr-NOESY bound conformation / contacts,wt E-cadherin-EC1-EC2 [3],no long range interactions were detected
same,X-ray binding / co-crystallization,E-cadherin-EC1-EC2,attempts to co-crystallize both compounds 1 and 2 with intact E-cadherin-EC1-EC2 did not yield results
same,STD epitope with truncated E-cadherin,[4]; E-cadherin-(Val3)-EC1-EC2,the only protons that are involved in the interaction are the aromatic ones
same,hydrogen bonding of amide/exchangeable protons,[5],the exchangeable protons are not involved in intra-molecular hydrogen bond formation
same,NOESY free-state conformation,[5],did not show any significant long range NOE contact typical of a preferred conformation
Ac-CHAVC-NH2 (disulfide 1-5 (inferred)) [ADH-1],reported activity,[6],anti-angiogenic agent able to cause cell apoptosis
